Results from ChEMBL document CHEMBL3792286, “A convenient and efficient approach to polyfluorosalicylic acids and their tuberculostatic activity” (Bioorg Med Chem Lett, 2016).
≈ marks a conversion by molar mass, not a printed value.

Experiments:
Mycobacterium avium = assay type: functional; conditions: 240 h
Mycolicibacter terrae = assay type: functional; conditions: 240 h
[1] = Toxicity in healthy mouse administered as single peroral dose measured after 14 days; assay type: organism-based; conditions: in vivo, po
[2] = system: Mycobacterium tuberculosis; experiment: microbe, parasite or virus in culture; conditions: H37Rv, 240 h
Description: Tuberculostatic activity against Mycobacterium tuberculosis H37Rv assessed as induction of penetration size stunting incubated for 10 days by vertical diffusion method

[3] = system: Mycobacterium tuberculosis; experiment: Antimicrobial activity against Mycobacterium tuberculosis; assay type: functional

Row | Structure (SMILES) | MIC (Mycobacterium avium) | MIC (Mycolicibacter terrae) | LD50 at 336 h [1] | MIC [2] | MIC [3]
1 | O=C(O)c1cc(F)c(F)cc1O | 0.7 µg/mL (≈ 4.02 µM) | 0.7 µg/mL (≈ 4.02 µM) | > 300 mg/kg | 0.7 µg/mL (≈ 4.02 µM) | 
2 | O=C(O)c1c(O)c(F)c(F)c(F)c1F | 0.7 µg/mL (≈ 3.33 µM) | 0.7 µg/mL (≈ 3.33 µM) | 100 mg/kg | 0.7 µg/mL (≈ 3.33 µM) | 
3 | O=C(O)c1ccc(F)c(F)c1O | 1.5 µg/mL (≈ 8.62 µM) | 1.5 µg/mL (≈ 8.62 µM) | > 150 mg/kg | 1.5 µg/mL (≈ 8.62 µM) | 
4 | O=C(O)c1cc(F)c(F)c(F)c1O |  |  | > 100 mg/kg | 6.5 µg/mL (≈ 33.8 µM) | 
5 | Nc1ccc(C(=O)O)c(O)c1 [AMINOSALICYLIC ACID] | 32 µg/mL (≈ 209 µM) |  | 4000 mg/kg | 0.3 µg/mL (≈ 1.96 µM) | > 250 µg/mL
6 | NNC(=O)c1ccncc1 [ISONIAZID] | 0.1 µg/mL (≈ 0.729 µM) | 0.1 µg/mL (≈ 0.729 µM) | 100 mg/kg | 0.1 µg/mL (≈ 0.729 µM) | 
7 | CC1COc2c(N3CCN(C)CC3)c(F)cc3c(=O)c(C(=O)O)cn1c23 (stereo not given) [OFLOXACIN] | 0.1 µg/mL (≈ 0.277 µM) | 0.1 µg/mL (≈ 0.277 µM) |  | 0.1 µg/mL (≈ 0.277 µM) | 
